Read-outs that look alike come from different tables or passages of the source. Where no end group is shown, it is not given here. 4MPA = not defined here

One data set concerns Calu-3 cells. Nature of the data set: MTT cytotoxicity assay in Calu-3 cells. Format: cell-based. On the procedure: (§1) Cytotoxicity of peptides was determined by the detection of 50% cytotoxic concentration (CC50) using a tetrazolium-based colorimetric MTT assay (H. Zhao, et al., Sci Rep, 6 (2016) 22008). Briefly, cells were seeded in 96-well cell culture plate at an initial density of 4×10^4 cells per well in DMEM supplemented with 10% FBS and incubated for overnight. Cell culture media were removed and then DMEM supplemented with various concentrations of peptides and 1% FBS were added to each well. After 24 h incubation at 37° C., MTT solution (5 mg ml^−1, 10 μl per well) was added to each well for incubation at 37° C. for 4 h. Then, 100 μl of 10% SDS in 0.01M HCl was added to each well. After further incubation at room temperature with shaking overnight, the plates were read at OD570 using VictorTM X3 Multilabel Reader (PerkinElmer, USA). Cell culture wells without peptides were used as the experiment control and medium only served as a blank control.

The subject of data set [1] is SARS-CoV-2. As to the kind of experiment: Viral attachment/entry and replication in VeroE6 cells by RT-qPCR. The class given is cell-based. On the technique in general: Real-time PCR tracks product formation cycle by cycle.
For a further data set, the system named is VeroE6 cells. Nature of the data set: MTT cytotoxicity assay in VeroE6 cells. The class given is cell-based. On the procedure: as §1
In general terms: Formazan colour is commonly taken as a measure of viable cells.

The test system of data set [2] is SARS-CoV-2. Nature of the data set: Nucleoprotein (NP) immunofluorescence assay. Particulars: VeroE6; virus pretreated; compared with untreated virus. The class given is cell-based.
The subject of data set [3] is SARS-CoV-2 (B.1. 617.2, Delta). As to the kind of experiment: Post-exposure antiviral activity in hamsters, Delta. The class given is in vivo, hamster. Particulars: 0.5 mg kg^−1, post exposure.
The target in a further data set is spike and ACE2 (Severe acute respiratory syndrome coronavirus 2, UniProt P0DTC2). Particulars: ELISA. For orientation: An ELISA detects its analyte on a solid surface through an enzyme-linked reagent.
The subject of data set [4] is SARS-CoV-2. Nature of the data set: Viral entry fluorescence assay. Format: cell-based.

Procedure for spike and ACE2: For determining spike and ACE2 binding, 60 ng S or ACE2 in PBST was incubated with peptides at 37° C. for 30 min.

“GAICHPVFCPRRYKQIGTCGLPGTKCCKKP-4MPA (cysteine pairing not given here; reading uncertain; also: printed as GAICHPVFCPRRYKQIGTCGLPGTKCCKKP-4MPA) [Peptide 4H30]”: the TC50 entry in the data set on Calu-3 cells and in the data set on VeroE6 cells was “higher than 400 μg ml^−1” throughout. Further, in the data set with SARS-CoV-2 [1], the “viral load increase at 6 hpi compared with 1 hpi” value was found to be 13 fold. Further, the “viral attachment and/or entry” value in the data set with SARS-CoV-2 [1] (cells pretreated by 4H30) and in the data set with SARS-CoV-2 [1] (virus pretreated by 4H30) was “significantly increased” in each case. In the data set on SARS-CoV-2 [1] (at 4 degrees), the “SARS-CoV-2 attachment to cells” value is “increase SARS-CoV-2 attachment”. The “viral load at 6 hpi compared with 1 hpi” value in the data set with SARS-CoV-2 [1] (cell lysate, virus pretreated by 4H30) is listed as “no significant increase in viral load”. Moreover, the “anti-NP staining, viral replication” value in the data set on SARS-CoV-2 [2] was “viral replication was significantly inhibited and restricted in very few cells”. Further, the “SARS-CoV-2 replication in hamsters” value in data set [3] is listed as “significantly inhibited”. The “syncytium formation and bronchial epithelial pathology in lungs” value in data set [3] is “reduced the syncytium formation and bronchial epithelial pathology”. In the data set with spike and ACE2, the “binding between spike and ACE2” value was “did not significantly affect”. Also, the “viral clustering and entry” value with SARS-CoV-2 [4] is “did not cluster viral particles and did not block viral entry”; in the data set on SARS-CoV-2 [4] (virus pretreated, Calu-3 and VeroE6 cells) it was “cross-link SARS-CoV-2 to form big viral clusters on Calu-3 and VeroE6 cell membrane without viral entry”.

The values are drawn from patent US20250171511A1, “ANTIVIRAL PEPTIDES AND METHODS OF USE THEREOF” (Versitech Limited, priority 2021, published 2025).
